Legend:
Experiment in all cases: relative viability (nuclei count vs DMSO), 5 days (fraction); higher = more cells survive
[1] = compound: COc1cc2nc(N3CCCN(C)CC3)nc(NC3CCN(Cc4ccccc4)CC3)c2cc1OC + CC1(C)CCC(c2ccc(Cl)cc2)=C(CN2CCN(c3ccc(C(=O)NS(=O)(=O)c4ccc(N[C@H](CCN5CCOCC5)CSc5ccccc5)c(S(=O)(=O)C(F)(F)F)c4)cc3)CC2)C1 [Navitoclax] (partner 0.5 µM)
In short: (§1)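 Relative viability equals treated-well nuclei counts divided by vehicle-well nuclei counts. Counts came from 4× images of lung cancer cell lines grown in 1536-well plates for 5 days after pin-tool dosing on the day after seeding. Dosing used one drug alone or a fixed anchor-drug dose plus five library-drug doses (not always all listed) in √10 steps, and values are medians of duplicate plates.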

[2] = compound: COc1cc2nc(N3CCCN(C)CC3)nc(NC3CCN(Cc4ccccc4)CC3)c2cc1OC + COc1cc2c(Oc3ccc(NC(=O)C4(C(=O)Nc5ccc(F)cc5)CC4)cc3F)ccnc2cc1OCCCN1CCOCC1 [Foretinib] (partner 0.25 µM)
In short: as §1

AZD6482 = compound: Cc1cc([C@@H](C)Nc2ccccc2C(=O)O)c2nc(N3CCOCC3)cc(=O)n2c1 [AZD6482]
In short: (§2)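 Hoechst staining, done together with fixation and permeabilisation, marked nuclei for 4× imaging and MetaXpress counting. This followed 5 days without medium change after lung cancer cell lines, kept overnight at 37 °C in 1536-well plates, were pinned with five library-drug doses (not always all listed) spaced by √10 on vehicle-anchored plates. Viability is the ratio of treated-well to vehicle-well nuclei, expressed as a median across plates. Plates passed only at control CV below 25% with at least one doubling.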

[3] = compound: COc1cc2nc(N3CCCN(C)CC3)nc(NC3CCN(Cc4ccccc4)CC3)c2cc1OC
In short: as §2

Cell Line	relative viability ([1]; first compound 0.2 µM)	relative viability ([1]; first compound 0.6325 µM)	relative viability ([1]; first compound 2 µM)	relative viability ([1]; first compound 6.325 µM)	relative viability ([2]; first compound 0.2 µM)	relative viability ([2]; first compound 0.6325 µM)	relative viability ([2]; first compound 2 µM)	relative viability ([2]; first compound 6.325 µM)	relative viability (AZD6482; 0.08 µM)	relative viability (AZD6482; 0.253 µM)	relative viability (AZD6482; 0.8 µM)	relative viability (AZD6482; 2.53 µM)	relative viability (AZD6482; 8 µM)	relative viability ([3]; 0.2 µM)	relative viability ([3]; 0.6325 µM)	relative viability ([3]; 2 µM)	relative viability ([3]; 6.325 µM)
NCI-H1734	0.883	0.757	0.83	0.599	0.934	0.846	0.849	0.91	0.905	0.907	1.04	0.611	0.795	0.967	0.876	0.889	0.855
LXF-289	0.894	0.938	1.01	0.905	0.936	0.993	0.984	1	1.01	1.07	1.06	0.93	0.973	0.99	0.993	1.04	1
H3255	0.517	0.59	0.669	0.544	0.857	0.812	0.981	1.05	0.996	0.918	0.979	0.688	0.835	0.915	0.986	1.1	0.961
201T	1.2	1.2	1.23	1.15	1.13	1.08	1.09	1.11	0.977	0.97	0.969	0.771	0.958	0.976	1.05	1.01	0.983
NCI-H2126	0.847	0.777	0.804	0.81	1.09	1.15	1.16	1.09	0.916	0.94	0.891	0.585	0.654	0.996	1.02	0.998	0.926
HOP-62	0.856	1.07	1.15	1.02	1.06	1.09	1.1	1.15	1.11	1.1	1.09	0.833	1.01	0.965	0.954	1.1	0.96
CAL-12T	1.28	1.23	1.27	1.19	1.01	1.15	1.38	0.941	0.959	0.979	1.1	0.731	0.839	0.905	0.964	1.02	0.933
NCI-H520	1.21	0.89	0.989	0.867	0.683	0.633	0.622	0.598	0.713	0.627	0.623	0.208	0.337	1.02	0.912	1.02	0.736
NCI-H1755	0.995	0.972	0.951	0.968	0.9	0.899	0.922	0.815	0.957	0.953	1	0.756	0.785	0.974	0.957	0.939	0.935
NCI-H2023	1.02	1.01	1.03	0.616	0.943	0.834	0.834	0.455	0.923	0.881	0.909	0.567	0.662	0.949	0.995	0.93	0.516
NCI-H2009	1.22	1.17	1.2	1.15	1.27	1.22	1.23	1.09	1.02	1.04	1.06	0.59	0.74	1.04	0.94	1.17	0.932
